The record followed here is patent publication US12398154B2, “Azaquinazoline pan-KRas inhibitors” (Mirati Therapeutics, Inc., priority 2020, dated 2025).

A value given as a limit tells only on which side of the number the result lay.

The subject of one assay is pERK in H358 cells. The assay is described as follows: Inhibition of KRas phosphorylation of ERK (Cisbio HTRF pERK assay). The note with it: Homo sapiens, NCI-H358, read-out: Inhibition (HTRF IC50) of KRas-mediated Phosphorylation of ERK, H358.
The test system of another assay is pERK in A549 cells. The description is as above. As to conditions: Homo sapiens, A549, read-out: Inhibition (HTRF IC50) of KRas-mediated Phosphorylation of ERK, A549. On the technique in general: In TR-FRET formats the signal depends on donor and acceptor labels being close together.
The next assay relates to pERK in H727 cells. Described as above. As to conditions: Homo sapiens, NCI-H727, read-out: Inhibition (HTRF IC50) of KRas-mediated Phosphorylation of ERK, H727.
For another assay, the system named is pERK in H460 cells. The description is as above. As to conditions: Homo sapiens, NCI-H460, read-out: Inhibition (HTRF IC50) of KRas-mediated Phosphorylation of ERK, H460.
A further assay has as its system pERK in HCT116 cells. The description is as above. As to conditions: Homo sapiens, HCT-116, read-out: Inhibition (HTRF IC50) of KRas-mediated Phosphorylation of ERK, HCT116.
The next assay relates to pERK in ASPC1 cells. The description is as above. As to conditions: Homo sapiens, ASPC1, read-out: Inhibition (HTRF IC50) of KRas-mediated Phosphorylation of ERK, AsPC-1.
For another assay, the system named is pERK in PSN1 cells. The description is as above. As to conditions: Homo sapiens, PSN1, 3 h, read-out: Inhibition (HTRF IC50) of KRas-mediated Phosphorylation of ERK, PSN1.
Another assay deals with pERK in MKN1 cells. The description is as above. The note with it: Homo sapiens, MKN-1, 3 h, read-out: Inhibition (HTRF IC50) of KRas-mediated Phosphorylation of ERK, MKN1.
Another assay concerns the target KRas G12D (Homo sapiens, UniProt P01116, G12D). Briefly: biochemical.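 Also: TR-FRET displacement binding assay on KRas, read after a one-hour incubation at room temperature, IC50 fitted from percent-of-control values.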
For a further assay, the target named is KRas G12R (Homo sapiens, UniProt P01116, G12R). Briefly: biochemical.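 Also: TR-FRET displacement assay of compound binding to KRas, read after one hour at room temperature, potency from a four-parameter fit of percent-of-control values.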
The target in the next assay is KRas G12V (Homo sapiens, UniProt P01116, G12V). The assay is described as follows: biochemical.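 Also: KRas binding measured by TR-FRET displacement at room temperature, IC50 fitted from percent of control values.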
In assay [1] the test system is phospho-ERK in AsPC-1 (G12D) cells. Briefly: Inhibition of KRas-mediated phosphorylation of ERK (in-cell western). In kind it is cell-based. As to conditions: Homo sapiens, ASPC1, 3 h, 3 hours compound, phospho-ERK normalized to GAPDH. The method, boiled down: (§1)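 IC50 came from 4-parameter dose-response fits of phospho-ERK (Thr202/Tyr204)/GAPDH signal, expressed as % DMSO control. Compounds were applied for 3 h at 0.5% DMSO before fixation, methanol permeabilization and antibody imaging by in-cell western.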

The subject of assay [2] is phospho-ERK in NCI-H727 (G12V) cells. The assay is described as above. In kind it is cell-based. As to conditions: Homo sapiens, NCI-H727, 3 h, 3 hours compound, phospho-ERK normalized to GAPDH. The method, boiled down:
as §1

Assay [3] relates to phospho-ERK in NCI-H460 (Q61H) cells. The assay is described as above. The class given is cell-based. The note with it: Homo sapiens, NCI-H460, 3 h, 3 hours compound, phospho-ERK normalized to GAPDH. In a few lines:
as §1

In the next assay the target is KRas G12A (Homo sapiens, UniProt P01116, G12A). Briefly: biochemical.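 Also: binding to KRas measured by TR-FRET displacement after one hour at room temperature, IC50 from a four-parameter fit of percent-of-control values.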
A further assay addresses KRas WT (Homo sapiens, UniProt P01116). The assay is described as follows: biochemical.
Another assay deals with KRas G12S (Homo sapiens, UniProt P01116, G12S). The assay is described as follows: biochemical.
A further assay deals with KRas G12C (Homo sapiens, UniProt P01116, G12C). The assay is described as follows: biochemical.
Chain of KRas G12C (P01116 1-169 isoform P01116-2 G12C): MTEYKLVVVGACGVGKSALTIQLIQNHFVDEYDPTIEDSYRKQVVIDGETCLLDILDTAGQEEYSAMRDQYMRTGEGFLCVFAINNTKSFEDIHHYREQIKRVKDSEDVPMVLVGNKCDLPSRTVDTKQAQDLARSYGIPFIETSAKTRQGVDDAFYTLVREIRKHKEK

Chain of KRas G12V (P01116 1-169 isoform P01116-2 G12V): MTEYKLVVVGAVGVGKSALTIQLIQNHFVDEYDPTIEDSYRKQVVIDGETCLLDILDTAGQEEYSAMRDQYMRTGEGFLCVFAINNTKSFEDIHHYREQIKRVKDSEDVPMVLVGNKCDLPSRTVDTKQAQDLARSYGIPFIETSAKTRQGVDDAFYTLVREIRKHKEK
Chain of KRas G12D (P01116 1-169 isoform P01116-2 G12D): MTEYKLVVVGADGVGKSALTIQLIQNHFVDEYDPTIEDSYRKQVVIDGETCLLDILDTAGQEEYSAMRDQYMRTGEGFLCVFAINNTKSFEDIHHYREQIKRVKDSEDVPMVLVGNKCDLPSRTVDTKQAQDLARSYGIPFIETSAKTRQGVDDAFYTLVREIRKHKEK
Chain of KRas G12R (P01116 1-169 isoform P01116-2 G12R): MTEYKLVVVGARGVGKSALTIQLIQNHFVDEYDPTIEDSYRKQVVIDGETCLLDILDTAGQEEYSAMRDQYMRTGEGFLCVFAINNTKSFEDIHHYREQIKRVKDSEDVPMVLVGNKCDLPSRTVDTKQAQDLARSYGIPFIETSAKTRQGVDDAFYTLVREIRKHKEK
Chain of KRas G12A (P01116 1-169 isoform P01116-2 G12A): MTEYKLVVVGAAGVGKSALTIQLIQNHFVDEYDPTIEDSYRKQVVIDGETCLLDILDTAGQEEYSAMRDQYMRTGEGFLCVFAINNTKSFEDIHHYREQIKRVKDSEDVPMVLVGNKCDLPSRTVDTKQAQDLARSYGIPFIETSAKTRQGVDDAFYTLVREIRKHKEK
Chain of KRas G12S (P01116 1-169 isoform P01116-2 G12S): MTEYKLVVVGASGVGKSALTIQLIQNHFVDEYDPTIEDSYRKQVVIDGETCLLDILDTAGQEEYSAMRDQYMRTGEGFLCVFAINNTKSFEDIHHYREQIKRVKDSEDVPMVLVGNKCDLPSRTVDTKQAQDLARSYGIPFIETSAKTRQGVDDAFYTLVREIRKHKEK
Chain of KRas WT (P01116 1-169 isoform P01116-2): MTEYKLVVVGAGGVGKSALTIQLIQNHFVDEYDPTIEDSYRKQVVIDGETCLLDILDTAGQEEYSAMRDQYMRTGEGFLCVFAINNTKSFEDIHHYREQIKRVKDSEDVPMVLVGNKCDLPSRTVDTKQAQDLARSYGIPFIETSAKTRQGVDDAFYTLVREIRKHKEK

One may read the IC50 as the concentration at which inhibition is half-maximal. In the case of `CCc1c(F)ccc2cc(O)cc(-c3ncc4c(N5CCC[C@]6(C5)C[C@H](O)C6)nc(OC[C@@]56CCCN5C[C@H](F)C6)nc4c3F)c12` (single isomer, unassigned) [Example 323], the IC50 in the assay on pERK in H358 cells turned out to be 2 nM; in the assay with pERK in A549 cells it was 19 nM; in the assay on pERK in H727 cells, 8 nM; in the assay with pERK in H460 cells, 11 nM; in the assay with pERK in HCT116 cells, 22 nM; in the assay on pERK in ASPC1 cells, 8 nM. For the same molecule, the IC50 is 600 nM in the assay on pERK in PSN1 cells and 2 nM with pERK in MKN1 cells.
For `CCc1c(F)ccc2cc(O)cc(-c3ncc4c(N5CC(c6ccncc6)C5)nc(OC[C@@]56CCCN5C[C@H](F)C6)nc4c3F)c12` [Example 172, 5-ethyl-6-fluoro-4-(8-fluoro-2-(((2R,7aS)-2-fluorohexahydro-1H-pyrrolizin-7a-yl)methoxy)-4-(3-(pyridin-4-yl)azetidin-1-yl)pyrido[4,3-d]pyrimidin-7-yl)naphthalen-2-ol], the IC50 against KRas G12D is 9 nM; in the assay with pERK in H358 cells, 6 nM; in the assay with pERK in H727 cells, 26 nM; against KRas G12R it was at most 2 nM; with pERK in H460 cells it was 32 nM; against KRas G12V, at most 2 nM. Further, the IC50 was 170 nM in the assay with pERK in HCT116 cells; 96 nM in the assay with pERK in ASPC1 cells; 481 nM in assay [1]; 192 nM in assay [2]; 79 nM in assay [3]; at least 10000 nM in the assay on pERK in PSN1 cells. The concentration for half-maximal inhibition (IC50) in the assay on pERK in MKN1 cells is 41 nM.
`CCc1c(F)ccc2cc(O)cc(-c3ncc4c(N5CCCC(C#N)CC5)nc(OC[C@@]56CCCN5C[C@H](F)C6)nc4c3F)c12` (stereo partly shown) [Example 173]: the half-inhibitory concentration (IC50) is 6 nM at KRas G12D; 95 nM in the assay on pERK in H358 cells; 263 nM in the assay with pERK in H727 cells; 6 nM against KRas G12R; 176 nM in the assay with pERK in H460 cells; 4 nM against KRas G12V. The IC50 in the assay on pERK in HCT116 cells amounted to 454 nM; in the assay on pERK in ASPC1 cells, 56 nM; in assay [1], 180 nM; in assay [2], 304 nM; in assay [3], 145 nM; in the assay on pERK in PSN1 cells it was 5540 nM. The 50% inhibitory concentration (IC50) in the assay with pERK in MKN1 cells came out at 42 nM.
For the molecule `CCc1c(F)ccc2cc(O)cc(-c3ncc4c(N5CCCC6(C5)NC(=O)NC6=O)nc(OC[C@@]56CCCN5C[C@H](F)C6)nc4c3F)c12` (stereo partly shown) [Example 196], the IC50 on KRas G12D was at most 2 nM; with pERK in H358 cells, 31 nM; with pERK in H727 cells, 167 nM; at KRas G12R, at most 2 nM; with pERK in H460 cells, 33 nM; at KRas G12V it was at most 2 nM. The IC50 came to 114 nM in the assay with pERK in HCT116 cells; 97 nM with pERK in ASPC1 cells; 361 nM in assay [1]; 452 nM in assay [2]; 48 nM in assay [3]; 314 nM with pERK in PSN1 cells. Further, the half-inhibitory concentration (IC50) in the assay with pERK in MKN1 cells came to 39 nM.
As to `CCc1c(F)ccc2cc(O)cc(-c3ncc4c(N5CCC[C@]6(C5)NC(=O)NC6=O)nc(OC[C@@]56CCCN5C[C@H](F)C6)nc4c3F)c12` [Example 307, (R)-7-(7-(8-ethyl-7-fluoro-3-hydroxynaphthalen-1-yl)-8-fluoro-2-(((2R,7aS)-2-fluorohexahydro-1H-pyrrolizin-7a-yl)methoxy)pyrido[4,3-d]pyrimidin-4-yl)-1,3,7-triazaspiro[4.5]decane-2,4-dione], the IC50 was at most 2 nM against KRas G12D; 15 nM in the assay with pERK in H358 cells; 85 nM with pERK in H727 cells; at most 2 nM against KRas G12R; 12 nM in the assay on pERK in H460 cells; at most 2 nM against KRas G12V. The IC50 came to 33 nM in the assay on pERK in HCT116 cells; 58 nM with pERK in ASPC1 cells; 117 nM in [1]; 215 nM in [2]; 11 nM in assay [3]; 106 nM with pERK in PSN1 cells. The half-inhibitory concentration (IC50) in the assay with pERK in MKN1 cells was 5 nM.
On to `CCc1c(F)ccc2cc(O)cc(-c3ncc4c(N5CCCCCCC5)nc(OC[C@@]56CCCN5C[C@H](F)C6)nc4c3F)c12` [Example 325, 4-(4-(azocan-1-yl)-8-fluoro-2-(((2R,7aS)-2-fluorohexahydro-1H-pyrrolizin-7a-yl)methoxy)pyrido[4,3-d]pyrimidin-7-yl)-5-ethyl-6-fluoronaphthalen-2-ol], for which the half-inhibitory concentration (IC50) is at most 2 nM against KRas G12A; at most 2 nM against KRas G12D; 164 nM in the assay on pERK in H358 cells; 45 nM in the assay with pERK in H727 cells; at most 2 nM against KRas G12R; 61 nM in the assay with pERK in H460 cells. Moreover, the half-inhibitory concentration (IC50) is at most 2 nM against KRas G12V; 56 nM in the assay with pERK in HCT116 cells; at most 2 nM against KRas WT; 49 nM in the assay on pERK in ASPC1 cells; at most 2 nM on KRas G12S; 5150 nM in the assay with pERK in PSN1 cells. Besides, the IC50 in the assay with pERK in MKN1 cells is 17 nM; against KRas G12C, at most 2 nM.
In the case of `CCc1c(F)ccc2cc(O)cc(-c3ncc4c(N5CCC[C@@](C)(O)C5)nc(OCC5(CN6CCCCC6)CC5)nc4c3F)c12` [Example 331, (R)-1-(7-(8-ethyl-7-fluoro-3-hydroxynaphthalen-1-yl)-8-fluoro-2-((1-(piperidin-1-ylmethyl)cyclopropyl)methoxy)pyrido[4,3-d]pyrimidin-4-yl)-3-methylpiperidin-3-ol], the IC50 against KRas G12D is at most 2 nM; in the assay on pERK in H358 cells it was 3 nM; in the assay with pERK in A549 cells, 6 nM; in the assay on pERK in H727 cells it was 35 nM; on KRas G12R, at most 2 nM; with pERK in H460 cells it was 16 nM. Besides, the 50% inhibitory concentration (IC50) against KRas G12V is at most 2 nM; with pERK in HCT116 cells it was 27 nM; in the assay on pERK in ASPC1 cells it was 4 nM; in the assay on pERK in MKN1 cells it was 1 nM.
Regarding `CCc1c(F)ccc2cc(O)cc(-c3ncc4c(N5CCCC6(CCSC6)C5)nc(OC[C@@]56CCCN5C[C@H](F)C6)nc4c3F)c12` (stereo partly drawn) [Example 476, 5-ethyl-6-fluoro-4-(8-fluoro-2-(((2R,7aS)-2-fluorotetrahydro-1H-pyrrolizin-7a(5H)-yl)methoxy)-4-(2-thia-7-azaspiro[4.5]decan-7-yl)pyrido[4,3-d]pyrimidin-7-yl)naphthalen-2-ol], the half-maximal inhibitory concentration (IC50) on KRas G12D was at most 2 nM; in the assay with pERK in H358 cells it was 35 nM; with pERK in H727 cells it was 148 nM; on KRas G12R, 4 nM; in the assay on pERK in H460 cells it was 99 nM; against KRas G12V, at most 2 nM. Moreover, the half-maximal inhibitory concentration (IC50) in the assay on pERK in HCT116 cells turned out to be 275 nM; with pERK in ASPC1 cells, 36 nM; with pERK in PSN1 cells it was 3590 nM; in the assay with pERK in MKN1 cells, 14 nM.
Take `O=S1(=O)NC[C@]2(CCCN(c3nc(OC[C@@]45CCCN4C[C@H](F)C5)nc4c(F)c(-c5cc(O)cc6ccc(F)c(Cl)c56)ncc34)C2)N1` [Example 515, (R)-7-(7-(8-chloro-7-fluoro-3-hydroxynaphthalen-1-yl)-8-fluoro-2-(((2R,7aS)-2-fluorotetrahydro-1H-pyrrolizin-7a(SB)-yl)methoxy)pyrido[4,3-d]pyrimidin-4-yl)-2-thia-1,3,7-triazaspiro[4.5]decane2,2-dioxide]: the IC50 against KRas G12D was at most 2 nM; in the assay with pERK in H358 cells, 7 nM; in the assay with pERK in A549 cells, 36 nM; with pERK in H727 cells, 19 nM; on KRas G12R it was at most 2 nM; in the assay with pERK in H460 cells, 19 nM. Besides, the results for the half-maximal inhibitory concentration (IC50) on KRas G12V, in the assay on pERK in HCT116 cells and in the assay with pERK in ASPC1 cells were at most 2 nM, 24 nM and 35 nM, respectively.
